The target of test [1] is TcpC TIR (Escherichia coli O6:H1, UniProt A0A0H2V8B5). Description: biochemical. Format: biochemical, uropathogenic Escherichia coli. The conditions noted are these: for inhibitor of TcpC TIR NADase activity (screen hit, NAD/ADPR ratio >2): Pharmakon library screen, 25 μM compound, 10 μM NAD, 37° C. 60 min, hits retested for dose dependent inhibition. As for the experimental part:
(§1) NRK1-HEK293T cells were seeded onto 150 cm2 plates at 20×10^6 cells per plate. […] Forty-eight hours after transfection, cells were harvested, pelleted by centrifugation at 1,000 rpm (Sorvall ST 16R centrifuge, Thermo Fisher), and washed once with cold PBS (0.01 M phosphate buffered saline NaCl 0.138 M; KCl 0.0027 M; pH 7.4). The cells were resuspended in PBS with protease inhibitors (Complete protease inhibitor cocktail, Roche product #11873580001) and cell lysates were prepared by sonication (Branson Sonifer 450, output=3, 20 episodes of stroke). […] Protein concentration was determined by the Bicinchoninic (BCA) method and used to normalize lysate concentrations.
(§2) The reaction was incubated at 37° C. for 60 min, and then stopped by addition of 180 μl of 0.55 M perchloric acid (HClO4) and placed on ice. After 10 min on ice, the reaction plates were centrifuged for 10 min at 4,000 rpm (Sorvall ST 16R centrifuge). The supernatant (120 μl) was transferred to a new plate and 10 μl of 3M K2CO3 was added to neutralize the solution. Precipitated salts were removed by centrifugation 10 min at 4,000 rpm (Sorvall ST 16R centrifuge). […] This ratio was compared to the ratio generated in the absence of compound inhibitors.
(§3) Positive hits were individually purchased from Sigma and tested its dose dependent inhibition in conditions described above. SARM1 Sam-Tir lysate and MSSA Tir were also used to test if these compounds could block these Tir NADase activities as well.

Test [2] relates to prokaryotic TIR domains (TirS-TIR, TcpC-TIR, TcpA-TIR). Description: Substrate specificity in NADase assay, purified prokaryotic TIR domains. Format: biochemical. The conditions noted are these: purified TIR proteins, HPLC and LC-MS, 30 minutes. The protocol: Supernatant (90 μL) containing the extracted metabolites was mixed with 0.5M Potassium Phosphate buffer (10 μL), and metabolites were analyzed by HPLC (Nexera X2) with Kinetex (100×3 mm, 2.6 μm; Phenomenex) column. Internal standards for NAD^+, Nicotinamide (Nam), ADP Ribose (ADPR), and cyclic ADPR were used to generate standard curves for quantification of the respective compounds. The levels for each compound in each experimental sample were normalized to the 0 min time point that was analyzed concurrently.
Neutralization was performed with 3M K2CO3.
Samples were prepared by mixing the reactions with 50% methanol in distilled water. The samples were placed on ice, centrifuged, soluble metabolites in the supernatant were extracted with chloroform, and the aqueous phase was lyophilized and stored at −20° C. until LC-MS analysis. For LC-MS, the metabolite samples were reconstituted with 5 mM ammonium formate, centrifuged 12,000×g for 10 min, and the cleared supernatant was applied to the LC-MS for metabolite identification and quantification. Liquid chromatography was performed by HPLC system (1290; Agilent) with Atlantis T3 (2.1×150 mm, 3 μm; Waters) column. Samples (10 µl) were injected at a flow rate of 0.15 ml/min with 5 mM ammonium formate for mobile phase A and 100% methanol for mobile phase B and metabolites were eluted with gradients of 2-6 min, 0-20% B; 6-8 min, 20-50% B; 8-10 min 50% B; 10-15 min, 50-0% B. The metabolites were detected with Triple Quad mass spectrometer (6460; Agilent) under positive ESI multiple reaction monitoring (MRM). Metabolites were quantified by MassHunter quantitative analysis tool (Agilent) with standard curves. Standard curves for each compound were generated by analyzing NAD^+, cADPR, ADPR, and Nam reconstituted in 5 mM ammonium formate.
In some instances, NADases are capable of cleaving a number of related molecules, such as the NAD+ precursor Nicotinamide Mononucleotide (NMN) in the case of CD38 (Sauve et al., 1998). Further, we wanted to determine whether prokaryotic TIRs could cleave additional substrates, providing additional paths to modifying cell metabolism. To examine the substrate specificity of the prokaryotic TIR domains, we tested their activity using a wide variety of metabolites and analogs.

In test [3] the target is T1, SARM1-TIR (Homo sapiens, UniProt Q6SZW1, DEL570-570/DEL657-657).
T1 construct: made in house
T1 sequence (Q6SZW1 with tags, fused parts or gaps DEL570-570/DEL657-657): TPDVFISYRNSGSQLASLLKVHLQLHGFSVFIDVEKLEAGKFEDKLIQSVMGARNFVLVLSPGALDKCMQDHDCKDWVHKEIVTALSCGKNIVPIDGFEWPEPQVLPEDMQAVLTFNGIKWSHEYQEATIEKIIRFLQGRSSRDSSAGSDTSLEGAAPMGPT
Description: Substrate specificity in NADase assay, purified SARM1-TIR. Format: biochemical. Conditions: purified TIR protein, HPLC and LC-MS, 30 minutes.

The test system of test [4] is SPN (Streptococcus Pyogenes NAD^+ glycohydrolase). The conditions noted are these: reported value (Ghosh et al., 2010); cited from earlier work.
For test [5], the target named is TirS (Staphylococcus aureus, UniProt P0DTS9). Description: TirS NADase inhibition assay (in-vitro translated protein, NAD/ADPR by HPLC). The conditions noted are these: FIG. 11B. It counts as biochemical. The protocol:
as §2

Test [6] concerns the target T2, SARM1 (Sam-Tir) (Homo sapiens, UniProt Q6SZW1).
T2 construct: SARM1 Sam-Tir lysate and MSSA Tir were also used; made in house; host or cells: lysate
T2 sequence (Q6SZW1 410-724 limits assumed): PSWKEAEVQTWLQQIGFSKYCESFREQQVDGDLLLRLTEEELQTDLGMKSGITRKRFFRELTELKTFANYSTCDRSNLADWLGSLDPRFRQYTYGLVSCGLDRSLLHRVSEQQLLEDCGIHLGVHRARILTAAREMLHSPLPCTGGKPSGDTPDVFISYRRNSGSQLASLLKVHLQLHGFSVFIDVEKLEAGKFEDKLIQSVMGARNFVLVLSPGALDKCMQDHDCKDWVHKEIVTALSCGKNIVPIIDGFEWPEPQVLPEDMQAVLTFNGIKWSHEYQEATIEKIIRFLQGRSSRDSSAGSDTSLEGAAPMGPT
Description: SARM1 Sam-Tir lysate NADase inhibition assay. Format: biochemical. The conditions noted are these: data not shown. As for the experimental part:
NAD (10 μM final concentration) was then added for a final reaction volume of 20 μl. The reaction was incubated at 37° C. for 60 min, and then stopped by addition of 180 μl of 0.55 M perchloric acid (HClO4) and placed on ice. After 10 min on ice, the reaction plates were centrifuged for 10 min at 4,000 rpm (Sorvall ST 16R centrifuge). The supernatant (120 μl) was transferred to a new plate and 10 μl of 3M K2CO3 was added to neutralize the solution. Precipitated salts were removed by centrifugation 10 min at 4,000 rpm (Sorvall ST 16R centrifuge). The supernatant was transferred and analyzed by HPLC (Shimadzu Nexera X2) to quantify the amounts of NAD and ADPR, a product of the cleavage reaction, in each sample. From these values, the NAD/ADPR ratio was calculated for each compound as a measure of NAD cleavage activity. This ratio was compared to the ratio generated in the absence of compound inhibitors.
as §3

Test [7] has as its target T3, uropathogenic Escherichia coli TcpC TIR domain (TcpC-TIR) (Escherichia coli, UniProt A0A0H2V8B5).
T3 construct: cell lysate
It counts as biochemical. Conditions: primary screen 25 μM, 10 μM NAD, 37° C, 60 min (hit: NAD/ADPR ratio >2), then dose response; FIG. 10. The protocol: as §1, §2
Positive hits were individually purchased from Sigma and tested its dose dependent inhibition in conditions described above. […]

Sequence of TcpC TIR (A0A0H2V8B5 169-303 limits assumed): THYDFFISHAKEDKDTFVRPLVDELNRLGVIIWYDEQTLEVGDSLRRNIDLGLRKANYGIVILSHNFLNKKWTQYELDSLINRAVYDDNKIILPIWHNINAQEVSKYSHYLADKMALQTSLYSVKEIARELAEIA
Sequence of TirS (P0DTS9 141-275 limits assumed): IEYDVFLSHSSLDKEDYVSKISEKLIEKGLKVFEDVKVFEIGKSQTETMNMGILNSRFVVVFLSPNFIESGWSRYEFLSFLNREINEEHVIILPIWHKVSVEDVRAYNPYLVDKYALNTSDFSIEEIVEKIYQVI
T3 sequence (A0A0H2V8B5 170-307): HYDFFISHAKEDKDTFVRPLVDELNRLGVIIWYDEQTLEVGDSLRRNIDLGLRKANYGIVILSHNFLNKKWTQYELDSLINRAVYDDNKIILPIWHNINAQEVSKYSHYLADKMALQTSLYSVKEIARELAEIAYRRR

On to `NC(N)=NC(=O)c1nc(Cl)c(N)nc1N` [amiloride, 3,5-diamino-6-chloro-N-(diaminomethylidene)pyrazine-2-carboxamide], for which the “inhibitor of TcpC TIR NADase activity (screen hit, NAD/ADPR ratio >2)” value in test [1] is given as “inhibitors”.
“Nicotinamide Adenine Dinucleotide Phosphate [NADP^+]”: the “cleavage of substrate by prokaryotic TIR domains” value in test [2] is given as “cleave”.
Take `NC(=O)c1ccc[n+]([C@@H]2O[C@H](COP(=O)([O-])OP(=O)(O)OC[C@H]3O[C@@H](n4cnc5c(=O)[nH]c(N)nc54)[C@H](O)[C@@H]3O)[C@@H](O)[C@H]2O)c1` [NGD, Nicotinamide Guanine Dinucleotide]: in test [3], the “cleavage of substrate by SARM1-TIR” value is listed as “cleaved”. In addition, the “cleavage of substrate by prokaryotic TIR domains” value in test [2] is listed as “did not cleave”.
For `NC(=S)c1ccc[n+]([C@@H]2O[C@H](COP(=O)([O-])OP(=O)(O)OC[C@H]3O[C@@H](n4cnc5c(N)ncnc54)[C@H](O)[C@@H]3O)[C@@H](O)[C@H]2O)c1` [sNAD, thionicotinamide adenine dinucleotide] the same measures were “substantially cleaved” and “substantially cleaved”.
The term Km denotes the substrate concentration at which the rate is half of its maximum. Regarding `NC(=O)c1ccc[n+]([C@@H]2O[C@H](COP(=O)([O-])OP(=O)(O)OC[C@H]3O[C@@H](n4cnc5c(N)ncnc54)[C@H](O)[C@@H]3O)[C@@H](O)[C@H]2O)c1` [NAD+], in test [4], the Km was 188 µM.
Regarding Guanine triphosphate [GTP], in test [3], the “cleavage of substrate by SARM1-TIR” value is “unable to detect substantial cleavage”. Besides, the “cleavage of substrate by prokaryotic TIR domains” value in test [2] is recorded as “unable to detect substantial cleavage”.
In the case of `Nc1c2ccccc2nc2ccccc12` [9-aminoacridine], the “inhibition of TirS NADase activity, compared among acridine compounds” value in test [5] was “most potent inhibition”. Besides, the “inhibition of TcpC TIR NADase activity” value in test [1] (data not shown) was “Neither of these drugs inhibited”. Also, in test [6], the “inhibition of SARM1 (Sam-Tir) NADase activity” value was “Neither of these drugs inhibited”.
On to `NC(=O)c1ccc[n+](C2OC(COP(=O)(O)OP(=O)(O)OCC3OC(n4cnc5c(=O)[nH]cnc54)C(O)C3O)C(O)C2O)c1` (stereo not shown) [NHD, Nicotinamide Hypoxanthine Dinucleotide], for which the “cleavage of substrate by SARM1-TIR” value in test [3] is reported as “cleaved”. The “cleavage of substrate by prokaryotic TIR domains” value in test [2] is “did not cleave”.
Turning to `Nc1ncnc2c1ncn2[C@@H]1O[C@H](COP(=O)(O)OP(=O)(O)OP(=O)(O)O)[C@@H](O)[C@H]1O` [ATP, Adenosine triphosphate], the “cleavage of substrate by SARM1-TIR” value in test [3] was “unable to detect substantial cleavage”. Further, the “cleavage of substrate by prokaryotic TIR domains” value in test [2] was “unable to detect substantial cleavage”.
Regarding `NC(=O)c1ccc[n+]([C@@H]2O[C@H](COP(=O)([O-])O)[C@@H](O)[C@H]2O)c1` [NMN, Nicotinamide Mononucleotide], the “cleavage of substrate by prokaryotic TIR domains” value in test [2] is listed as “little effect”.
In the case of `CC(=O)c1ccc[n+]([C@@H]2O[C@H](COP(=O)([O-])OP(=O)(O)OC[C@H]3O[C@@H](n4cnc5c(N)ncnc54)[C@H](O)[C@@H]3O)[C@@H](O)[C@H]2O)c1` [3-apAD, 3-acetylpyridine adenine dinucleotide], the “cleavage of substrate by SARM1-TIR” value in test [3] is “substantially cleaved”. Besides, the “cleavage of substrate by prokaryotic TIR domains” value in test [2] is listed as “substantially cleaved”.
As usually defined, the IC50 is the concentration at which inhibition is half-maximal. In test [1], `Cc1cc(N)c2ccccc2[n+]1CCCCCCCCCC[n+]1c(C)cc(N)c2ccccc21` [Dequalinium] gave an IC50 of around 300 nM. The “inhibitor of TcpC TIR NADase activity (screen hit, NAD/ADPR ratio >2)” value in test [1] is reported as “potent inhibitor”; in test [1] (listed as dequalinium), “inhibitors”. In test [7], the “inhibition of TcpC TIR NADase activity” value is given as “very potent inhibitor”.
On to `Nc1ncnc2c1ncn2[C@@H]1O[C@H](COP(=O)(O)OP(=O)(O)OC[C@H]2O[C@@H]([n+]3cccc(C(=O)O)c3)[C@H](O)[C@@H]2O)[C@@H](O)[C@H]1O` [NaAD, Nicotinic Acid Adenine Dinucleotide], for which the “cleavage of substrate by SARM1-TIR” value in test [3] was “none cleaved”. Besides, the “cleavage of substrate by prokaryotic TIR domains” value in test [2] was “none cleaved”.

The values above are taken from patent US12247246B2, “Identification of inhibitors of TcpC and TIR NADase activity” (Washington University, priority 2017, dated 2025).
